One assay relates to PBR. Conditions: Wilson et al Nuc. Med. Biol. 2008; cited from earlier work.
A further assay concerns the target T1, Wistar rat heart PBR (Rattus norvegicus, UniProt P16257).
T1 construct: PK-11195; from tissue; host or cells: Wistar rat heart
Briefly: In vitro potency assay (competition binding against [3H]PK-11195).

Read-outs that look alike come from different tables or passages of the source.

Method for Wistar rat heart PBR: Affinity for PBR was screened using a method adapted from Le Fur et al (Life Sci. 1983; USA 33: 449-57).
Each test compound (dissolved in 50 mM Tris-HCl, pH 7.4, 10 mM MgCl2 containing 1% DMSO) competed for binding to Wistar rat heart PBR against 0.3 nM [^3H] […] The reaction was carried out in 50 mM Tris-HCl, pH 7.4 10 mM MgCl2 for 15 minutes at 25° C.

Take `CC(=O)N(Cc1ccccc1OCC[18F])c1cnccc1Oc1ccccc1` [[^18F]-FE-PBR28]: the “affinity for PBR in vitro” value in the assay with PBR was “subnanomolar”. As for `CC(=O)N(Cc1cccnc1OCCF)c1ccccc1Oc1ccccc1` [Non-radioactive imaging agent 19, N-[2-(2-Fluoro-ethoxy)-pyridin-3-ylmethyl]-N-(2-phenoxy-phenyl)-acetamide], the Ki (in general, a dissociation constant, usually derived from enzyme kinetics or from competition with a known ligand) on Wistar rat heart PBR (read-out: Ki) turned out to be 1.02 nM.

As to `CC(=O)N(Cc1ccccc1OCCF)c1cccnc1Oc1ccccc1` [Non-radioactive imaging agent 1, N-[2(2-fluoroethoxy)benzyl]-N-(2-phenoxypyridin-3-yl)acetamide], on Wistar rat heart PBR (read-out: Ki), the Ki amounted to 4.24 nM.

Take `COc1ncccc1CN(C(=O)CF)c1ccccc1Oc1ccccc1` [Non-radioactive imaging agent 18, 2-Flouro-N-(2-methoxy-pyridin-3-ylmethyl)-N-(2-phenoxy-phenyl)-acetamide]: the Ki at Wistar rat heart PBR was 3.77 nM. Regarding `CC(=O)N(Cc1ccccc1OCC[18F])c1cccnc1Oc1ccccc1` [Imaging Agent 1], the “measured potency for PBR compared with [18F]-FE-PBR28” value at Wistar rat heart PBR (relative to FE-PBR28) was “two orders of magnitude less”.

These data come from US20120003154A1, “ARYLOXYANILIDE DERIVATIVES” (priority 2009, published 2012).
